In patent publication US20100168102A9, “Amide Derivatives as Kinase Inhibitors” (Devgen NV, priority 2005, published 2010):
Counter-ions that a name gives are not always drawn. Like-named read-outs stand apart in the source and are kept apart here.

Columns and labels:
[1] = target: T1, human ROCKα/ROCKII mix (Homo sapiens, UniProt O75116); experiment: Biochemical assay for ROCK (fluorescence polarization, ROCK IMAP Kit)
T1 construct: purchased Upstate Biotechnology 14-451

[2] = target: T2, PKC epsilon (Homo sapiens, UniProt Q02156); experiment: Biochemical assay for PKC epsilon (fluorescence polarization, Protein Kinase C Assay Kit, Red); conditions: read-out: IC50 μM PKCε
T2 construct: purchased Invitrogen P2282
T2 sequence (Q02156 1-737): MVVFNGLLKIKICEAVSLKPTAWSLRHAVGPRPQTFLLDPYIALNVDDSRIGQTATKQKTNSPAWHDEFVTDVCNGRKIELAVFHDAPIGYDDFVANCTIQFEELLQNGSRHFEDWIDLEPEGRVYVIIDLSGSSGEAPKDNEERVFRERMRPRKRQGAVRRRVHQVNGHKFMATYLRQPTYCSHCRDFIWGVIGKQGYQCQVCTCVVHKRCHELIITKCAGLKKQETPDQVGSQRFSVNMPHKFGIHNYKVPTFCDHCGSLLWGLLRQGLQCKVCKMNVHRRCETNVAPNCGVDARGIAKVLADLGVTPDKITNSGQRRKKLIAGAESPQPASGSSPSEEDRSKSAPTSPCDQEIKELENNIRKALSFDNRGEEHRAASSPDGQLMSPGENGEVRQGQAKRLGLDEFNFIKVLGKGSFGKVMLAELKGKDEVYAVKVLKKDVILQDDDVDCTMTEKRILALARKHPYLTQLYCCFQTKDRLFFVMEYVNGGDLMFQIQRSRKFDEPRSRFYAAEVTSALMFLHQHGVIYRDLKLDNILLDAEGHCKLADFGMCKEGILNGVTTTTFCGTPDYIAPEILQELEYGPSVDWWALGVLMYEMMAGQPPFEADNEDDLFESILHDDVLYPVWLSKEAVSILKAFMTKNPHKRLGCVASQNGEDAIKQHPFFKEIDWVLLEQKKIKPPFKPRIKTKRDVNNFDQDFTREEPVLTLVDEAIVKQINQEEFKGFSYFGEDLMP
How it was run: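 PKC epsilon at 10 ng/ml final was preincubated 30 min at room temperature with compound in HEPES pH 7.4 with DTT and Triton X-100. ATP/protein substrate was then added in buffer with MgCl2 and CaCl2 for 80 min. The reaction was stopped with EDTA, phosphorylation was detected by fluorescence polarization with rhodamine tracer and anti-phosphoserine antibody, and IC50 values came from curve fits.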

[3] = Table 2, compounds of Formula XIII
[4] = compounds of Formula XIV, Table 3

T1 sequence (O75116 11-552 limits assumed): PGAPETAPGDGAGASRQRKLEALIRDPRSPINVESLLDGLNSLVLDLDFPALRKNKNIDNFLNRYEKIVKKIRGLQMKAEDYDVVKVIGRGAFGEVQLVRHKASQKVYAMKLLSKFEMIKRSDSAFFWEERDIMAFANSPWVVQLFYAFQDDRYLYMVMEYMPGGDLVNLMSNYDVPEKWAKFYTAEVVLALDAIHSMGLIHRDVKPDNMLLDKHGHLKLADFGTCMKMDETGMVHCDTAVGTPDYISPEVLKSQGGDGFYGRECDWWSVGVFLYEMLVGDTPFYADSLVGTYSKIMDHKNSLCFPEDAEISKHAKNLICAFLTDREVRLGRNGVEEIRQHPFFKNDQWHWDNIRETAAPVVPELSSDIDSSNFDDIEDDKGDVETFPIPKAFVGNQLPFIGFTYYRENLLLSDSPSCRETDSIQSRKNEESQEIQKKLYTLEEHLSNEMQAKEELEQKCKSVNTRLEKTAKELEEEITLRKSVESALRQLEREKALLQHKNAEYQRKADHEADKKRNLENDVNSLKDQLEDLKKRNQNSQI

Structure (SMILES) | IC50 [1, 3] | IC50 [2, 3] | other results
NC(CNC(=O)Nc1ccc(Cl)cc1)c1ccc(C(=O)Nc2ccncc2)cc1 (centres unmarked) [Compound 326, 4-{1-Amino-2-[3-(4-chloro-phenyl)-ureido]-ethyl}-N-pyridin-4-yl-benzamide] | – | – | IC50 [1]: 0.05 to 0.5 µM; IC50 [2]: 0.05 to 0.5 µM
COc1ccc(CC(=O)NCC(N)c2ccc(C(=O)Nc3ccncc3)cc2)cc1F (centres unmarked) [Compound 327, 4-{1-Amino-2-[2-(3-fluoro-4-methoxy-phenyl)-acetylamino]-ethyl}-N-pyridin-4-yl-benzamide] | 0.05 to 0.5 µM | 0.5 to 5 µM | –
COc1ccc(C2(C(=O)NCC(N)c3ccc(C(=O)Nc4ccncc4)cc3)CCCC2)cc1 (centres unmarked) [Compound 344, 4-(1-Amino-2-{[1-(4-methoxy-phenyl)-cyclopentanecarbonyl]-amino}-ethyl)-N-pyridin-4-yl-benzamide] | 0.05 to 0.5 µM | 0.05 to 0.5 µM | –
NC(CNC(=O)C1(c2ccc(Cl)c(Cl)c2)CC1)c1ccc(C(=O)Nc2ccncc2)cc1 (centres unmarked) [Compound 345, 4-(1-Amino-2-{[1-(3,4-dichloro-phenyl)-cyclopropanecarbonyl]-amino}-ethyl)-N-pyridin-4-yl-benzamide] | 0.05 to 0.5 µM | 0.05 to 0.5 µM | –
CC(C)(C(=O)NCC(N)c1ccc(C(=O)Nc2ccncc2)cc1)c1ccsc1 (centres unmarked) [Compound 346, 4-[1-Amino-2-(2-methyl-2-thiophen-3-yl-propionylamino)-ethyl]-N-pyridin-4-yl-benzamide] | 0.05 to 0.5 µM | 0.05 to 0.5 µM | –
NC(CNC(=O)C1(c2ccsc2)CC1)c1ccc(C(=O)Nc2ccncc2)cc1 (centres unmarked) [Compound 347, 4-{1-Amino-2-[(1-thiophen-3-yl-cyclopropanecarbonyl)-amino]-ethyl}-N-pyridin-4-yl-benzamide] | 0.05 to 0.5 µM | 0.05 to 0.5 µM | –
CC(C)(C(=O)NCC(N)c1ccc(C(=O)Nc2ccncc2)cc1)c1cccs1 (centres unmarked) [Compound 348, 4-[1-Amino-2-(2-methyl-2-thiophen-2-yl-propionylamino)-ethyl]-N-pyridin-4-yl-benzamide] | 0.05 to 0.5 µM | < 0.05 µM | –
NC(CNC(=O)C1(c2cccs2)CC1)c1ccc(C(=O)Nc2ccncc2)cc1 (centres unmarked) [Compound 349, 4-{1-Amino-2-[(1-thiophen-2-yl-cyclopropanecarbonyl)-amino]-ethyl}-N-pyridin-4-yl-benzamide] | 0.05 to 0.5 µM | 0.05 to 0.5 µM | –
COc1ccc2c(c1)CCCC2C(=O)NCC(N)c1ccc(C(=O)Nc2ccncc2)cc1 (centres unmarked) [Compound 355, 6-Methoxy-1,2,3,4-tetrahydro-naphthalene-1-carboxylic acid {2-amino-2-[4-(pyridin-4-ylcarbamoyl)-phenyl]-ethyl}-amide] | 0.05 to 0.5 µM | 0.05 to 0.5 µM | –
NC(CC(=O)N[C@H]1CCc2ccccc21)c1ccc(C(=O)Nc2ccncc2)cc1 (stereo partly drawn) [Compound 357, 4-[1-Amino-2-((S)-indan-1-ylcarbamoyl)-ethyl]-N-pyridin-4-yl-benzamide] | – | – | IC50 [1, 4]: 0.05 to 0.5 µM; IC50 [2, 4]: 0.5 to 5 µM
NC(CC(=O)N[C@@H]1CCc2ccccc21)c1ccc(C(=O)Nc2ccncc2)cc1 (stereo partly drawn) [Compound 358, 4-[1-Amino-2-((R)-indan-1-ylcarbamoyl)-ethyl]-N-pyridin-4-yl-benzamide] | – | – | IC50 [1, 4]: 0.05 to 0.5 µM; IC50 [2, 4]: 0.05 to 0.5 µM
N[C@H](CC(=O)N[C@H]1CCCc2ccccc21)c1ccc(C(=O)Nc2ccncc2)cc1 [Compound 372, 4-{(R)-1-Amino-2-[(S)-(1,2,3,4-tetrahydro-naphthalen-1-yl)carbamoyl]-ethyl}-N-pyridin-4-yl-benzamide dihydrochloric acid salt] | – | – | IC50 [1]: 0.05 to 0.5 µM; IC50 [2]: 0.5 to 5 µM
N[C@@H](CC(=O)N[C@@H]1CCCc2ccccc21)c1ccc(C(=O)Nc2ccncc2)cc1 [Compound 374, 4-{(S)-1-Amino-2-[(R)-(1,2,3,4-tetrahydro-naphthalen-1-yl)carbamoyl]-ethyl}-N-pyridin-4-yl-benzamide dihydrochloric acid salt] | – | – | IC50 [1]: 0.05 to 0.5 µM; IC50 [2]: 0.5 to 5 µM
N[C@@H](CC(=O)N[C@H]1CCCc2ccccc21)c1ccc(C(=O)Nc2ccncc2)cc1 [Compound 375, 4{(S)-1-Amino-2-[(S)-(1,2,3,4-tetrahydro-naphthalen-1-yl)carbamoyl]-ethyl}-N-pyridin-4-yl-benzamide dihydrochloric acid salt] | – | – | IC50 [1]: 0.05 to 0.5 µM; IC50 [2]: 5 to 50 µM
NC(CNC(=O)C1(c2ccc(F)c(F)c2)CC1)c1ccc(C(=O)Nc2ccncc2)cc1 (centres unmarked) [Compound 377, 4-(1-Amino-2-{[1-(3,4-difluoro-phenyl)-cyclopropanecarbonyl]-amino}-ethyl)-N-pyridin-4-yl-benzamide] | 0.05 to 0.5 µM | < 0.05 µM | –
NC(CNC(=O)C1(c2ccc(F)c(F)c2)CCC1)c1ccc(C(=O)Nc2ccncc2)cc1 (centres unmarked) [Compound 378, 4-(1-Amino-2-{[1-(3,4-difluoro-phenyl)-cyclobutanecarbonyl]-amino}-ethyl)-N-pyridin-4-yl-benzamide] | 0.05 to 0.5 µM | < 0.05 µM | –
NC(CNC(=O)C1(c2ccc(F)c(F)c2)CCCC1)c1ccc(C(=O)Nc2ccncc2)cc1 (centres unmarked) [Compound 379, 4-(1-Amino-2-{[1-(3,4-difluoro-phenyl)-cyclopentanecarbonyl]-amino}-ethyl)-N-pyridin-4-yl-benzamide] | 0.05 to 0.5 µM | < 0.05 µM | –
CC(C)(C(=O)NCC(N)c1ccc(C(=O)Nc2ccncc2)cc1)c1ccc(Cl)c(Cl)c1 (centres unmarked) [Compound 380, 4-{1-Amino-2-[2-(3,4-dichloro-phenyl)-2-methyl-propionylamino]-ethyl}-N-pyridin-4-yl-benzamide] | 0.05 to 0.5 µM | < 0.05 µM | –
NC(CNC(=O)C1(c2ccc(Cl)c(Cl)c2)CCC1)c1ccc(C(=O)Nc2ccncc2)cc1 (centres unmarked) [Compound 381, 4-(1-Amino-2-{[1-(3,4-dichloro-phenyl)-cyclobutanecarbonyl]-amino}-ethyl)-N-pyridin-4-yl-benzamide] | 0.05 to 0.5 µM | 0.05 to 0.5 µM | –
CC(C)(C(=O)NCC(N)c1ccc(C(=O)Nc2ccncc2)cc1)c1ccc(F)c(Cl)c1 (centres unmarked) [Compound 382, 4-{1-Amino-2-[2-(3-chloro-4-fluoro-phenyl)-2-methyl-propionylamino]-ethyl}-N-pyridin-4-yl-benzamide] | 0.05 to 0.5 µM | < 0.05 µM | –
CC(C)(C(=O)NCC(N)c1ccc(C(=O)Nc2ccncc2)cc1)c1ccc(F)cc1F (centres unmarked) [Compound 384, 4-{1-Amino-2-[2-(2,4-difluoro-phenyl)-2-methyl-propionylamino]-ethyl}-N-pyridin-4-yl-benzamide] | 0.05 to 0.5 µM | < 0.05 µM | –
NC(CNC(=O)C1(c2ccc(F)cc2F)CC1)c1ccc(C(=O)Nc2ccncc2)cc1 (centres unmarked) [Compound 385, 4-(1-Amino-2-{[1-(2,4-difluoro-phenyl)-cyclopropanecarbonyl]-amino}-ethyl)-N-pyridin-4-yl-benzamide] | 0.05 to 0.5 µM | < 0.05 µM | –
CC(C)(C(=O)NCC(N)c1ccc(C(=O)Nc2ccncc2)cc1)c1ccc(F)cc1Cl (centres unmarked) [Compound 386, 4-{1-Amino-2-[2-(2-chloro-4-fluoro-phenyl)-2-methyl-propionylamino]-ethyl}-N-pyridin-4-yl-benzamide] | 0.05 to 0.5 µM | < 0.05 µM | –
NC(CNC(=O)C1(c2ccc(F)cc2Cl)CC1)c1ccc(C(=O)Nc2ccncc2)cc1 (centres unmarked) [Compound 387, 4-(1-Amino-2-{[1-(2-chloro-4-fluoro-phenyl)-cyclopropanecarbonyl]-amino}-ethyl)-N-pyridin-4-yl-benzamide] | 0.05 to 0.5 µM | < 0.05 µM | –
CC(C)(C(=O)NCC(N)c1ccc(C(=O)Nc2ccncc2)cc1)c1ccc(Cl)cc1F (centres unmarked) [Compound 388, 4-{1-Amino-2-[2-(4-chloro-2-fluoro-phenyl)-2-methyl-propionylamino]-ethyl}-N-pyridin-4-yl-benzamide] | 0.05 to 0.5 µM | < 0.05 µM | –
NC(CNC(=O)C1(c2ccc(Cl)cc2F)CC1)c1ccc(C(=O)Nc2ccncc2)cc1 (centres unmarked) [Compound 389, 4-(1-Amino-2-{[1-(4-chloro-2-fluoro-phenyl)-cyclopropanecarbonyl]-amino}-ethyl)-N-pyridin-4-yl-benzamide] | 0.05 to 0.5 µM | < 0.05 µM | –
NC(CNC(=O)C1CCOc2ccccc21)c1ccc(C(=O)Nc2ccncc2)cc1 (centres unmarked) [Compound 390, Chroman-4-carboxylic acid {2-amino-2-[4-(pyridin-4-ylcarbamoyl)-phenyl]-ethyl}-amide] | 0.05 to 0.5 µM | 0.05 to 0.5 µM | –
NC(CNC(=O)C1CCSc2ccccc21)c1ccc(C(=O)Nc2ccncc2)cc1 (centres unmarked) [Compound 391, Thiochroman-4-carboxylic acid {2-amino-2-[4-(pyridin-4-ylcarbamoyl)-phenyl]-ethyl}-amide] | 0.05 to 0.5 µM | 0.05 to 0.5 µM | –
